Values after ≈ are worked out from the molar mass of the structure shown.
Columns and labels:
Experiment in all cases: Minimum inhibitory concentration (MIC)
Assay type in all cases: cell-based
[1] = test system: Serratia marcescens No. 1; settings: read-out: Minimum inhibitory concentrations (MIC)
Source text: (§1) The cephem compounds (I) of this invention and the salts or ester thereof are all novel compounds which are useful as antibacterial agent. To illustrate the utility of the new compound of this invention, we have determined and show below the minimum inhibitory concentrations of some representative examples of the new cephem compounds of this invention against growth of various bacteria in Table 1.

[2] = test system: Staphylococcus aureus 209P JC-1; settings: read-out: Minimum inhibitory concentrations (MIC)
Source text: as §1

Proteus vulgaris GN-76 = settings: GN76, read-out: Minimum inhibitory concentrations (MIC)
Source text: as §1

[3] = test system: Klebsiella pneumoniae PCI-602; settings: PCI602, read-out: Minimum inhibitory concentrations (MIC)
Source text: as §1

[4] = test system: Escherichia coli NIHJ JC-2; settings: NIHJJC2, read-out: Minimum inhibitory concentrations (MIC)
Source text: as §1

[5] = test system: Staphylococcus aureus Smith; settings: read-out: Minimum inhibitory concentrations (MIC)
Source text: as §1

Proteus mirabilis GN-79 = settings: GN79, read-out: Minimum inhibitory concentrations (MIC)
Source text: as §1

Proteus rettgeri GN-624 = settings: Providencia rettgeri, GN624, read-out: Minimum inhibitory concentrations (MIC)
Source text: as §1

[6] = test system: Salmonella typhimurium LT-2; settings: Salmonella enterica, read-out: Minimum inhibitory concentrations (MIC)
Source text: as §1

[7] = test system: Pseudomonas cepacia M-0527; settings: Burkholderia cepacia, M0527, read-out: Minimum inhibitory concentrations (MIC)
Source text: as §1

Row | MIC [1] [µg/mL] | MIC [2] [µg/mL] | MIC (Proteus vulgaris GN-76) [µg/mL] | MIC [3] [µg/mL] | MIC [4] [µg/mL] | MIC [5] [µg/mL] | MIC (Proteus mirabilis GN-79) [µg/mL] | MIC (Proteus rettgeri GN-624) [µg/mL] | MIC [6] [µg/mL] | MIC [7] [µg/mL] | Structure (SMILES)
1 | 0.2 (≈ 0.419 µM) | 0.2 (≈ 0.419 µM) | 0.2 (≈ 0.419 µM) | 0.39 (≈ 0.817 µM) | 0.78 (≈ 1.63 µM) | 0.39 (≈ 0.817 µM) | 0.39 (≈ 0.817 µM) | 3.13 (≈ 6.56 µM) | 0.39 (≈ 0.817 µM) | 6.25 (≈ 13.1 µM) | CO/N=C(\C(=O)NC1C(=O)N2C(C(=O)O)=C(/C=C\C(F)(F)F)CSC12)c1csc(N)n1 (stereo not drawn) [Compound (A), 7-[2-methoxyimino-2-(2-aminothiazol-4-yl)acetamido]-3-(3,3,3-trifluoropropenyl)-3-cephem-4-carboxylic acid (syn-isomer, cis-isomer)]
2 | 0.39 (≈ 0.817 µM) | 0.39 (≈ 0.817 µM) | 0.2 (≈ 0.419 µM) | 0.39 (≈ 0.817 µM) | 0.39 (≈ 0.817 µM) | 0.78 (≈ 1.63 µM) | 0.39 (≈ 0.817 µM) | 1.56 (≈ 3.27 µM) | 0.2 (≈ 0.419 µM) | 6.25 (≈ 13.1 µM) | CO/N=C(\C(=O)NC1C(=O)N2C(C(=O)O)=C(/C=C/C(F)(F)F)CSC12)c1csc(N)n1 (stereo not drawn) [Compound (B), 7-[2-methoxyimino-2-(2-aminothiazol-4-yl)acetamido]-3-(3,3,3-trifluoropropenyl)-3-cephem-4-carboxylic acid (syn-isomer, trans-isomer)]

Source: patent US4687769A, “3-(3,3,3-trifluoropropenyl) cephalosporins” (Meiji Seika Kaisha, Ltd., priority 1984, dated 1987)
